Test results published in patent US20140288117A1, “USE OF CYSTEAMINE IN TREATING PARKINSON'S DISEASE” (Omega Bio-Pharma (I.P. 2) Ltd, priority 2010, published 2014).

Legend:
[1] = system: reactive oxygen species (ROS); assay: ROS level in substantia nigra cells by DCDHF-DA fluorescence; assay type: in vivo, mice; conditions: n = 8
Description: (§1) C57/BL mice weighted 20-22 g were used. […] The control group was injected with 0.9% saline.
The ROS level was measured using 2′,7′-dichlorodihydrofluorescein diacetate (DCDHF-DA). DCDHF-DA which is cell-permeable and non-fluorescent, and, in the presence of ROS it is oxidized inside cells and transformed into a fluorescent compound, 2′,7′-dichlorofluorescein (DCDF), which remains trapped within the cell. To measure the ROS level in substantia nigra, isolated cells (10^5/ml) were incubated with 50 μM DCDHF-DA for 40 min at 37° C. and washed twice in PBS. The fluorescence was monitored in microplate reader (Liu, et al., 2009). For each sample, 10,000 cells were acquired. Data were expressed as an average of fluorescence intensity of analyzed cell population (mean fluorescence intensity±SD).

[2] = system: superoxide dismutase (SOD); assay: SOD activity in substantia nigra (xanthine/xanthine oxidase system); assay type: in vivo, mice; conditions: n = 8
Description: as §1
(§2) The formation of thiobarbituric acid reactive species (TBARS) during an acid-heating reaction was determined by the absorbance at 532 nm. The rate of lipid peroxidation was expressed as nmol/mg protein. SOD activity was detected based on its ability to inhibit the superoxide anion free radical of O^2− generated by the xanthine/xanthine oxidase system. The absorbance at 550 nm was monitored and SOD levels were expressed as U/mg protein. The total glutathione (reduced and oxidized form of glutathione) was determined using glutathione reductase. Absorbance was measured at 412 nm using microplate reader. The standard curve was obtained from absorbance of the diluted commercial GSH that was incubated in the mixture as in samples. Results were reported as nmol TNB/mg protein.

malondialdehyde (MDA) = assay: Malondialdehyde (MDA) / TBARS lipid peroxidation in substantia nigra; assay type: in vivo, mice; conditions: n = 8
Description: as §1, §2

[3] = system: glutathione (GSH) levels in the SNpc; assay: Total glutathione (GSH) level in SNpc using glutathione reductase; assay type: in vivo, mice; conditions: mean±SD
Description: as §1, §2

[4] = system: brain-derived neurotrophic factor (BDNF); assay: BDNF concentration in substantia nigra by ABC-ELISA; conditions: for BDNF concentration in substantia nigra: mean±SD
Description: C57/BL mice weighted 20-22 g were used. Mice were treated with cysteamine and/or induced by MPTP fresh preparations according to the group assignments. Group assignments (n=8/group) were as follows: (1) saline (control) group, (2) MPTP alone (see below), (3) cysteamine (CS) 20 mg/kg/d alone for two weeks, (4) CS 75 mg/kg/d alone for two weeks, (5) CS 20 mg/kg/d for total 14 days and MPTP was given from day 5 to 9, (6) CS 75 mg/kg/d for total 14 days and MPTP was given from day 5 to 9, (7) simultaneous administration of MPTP and CS 20 mg/kg/d for 5 days followed by CS for additional 9 days, (8) simultaneous administration of MPTP and CS 75 mg/kg/d for 5 days followed by CS for additional 9 days. The control group was injected with 0.9% saline. MPTP (20 mg/kg) was intraperitoneally (i.p.) injected into the mice twice daily at an interval of 12 hrs for the initial 2 days and once per day on day 3-5 (Tremblay et al., “Neuroprotective effects of cystamine in aged parkinsonian mice,” Neurobiol Aging. 27:862-870 (2006)). CS (20 mg/kg/d and 75 mg/kg/day were injected alone for 14 days.
After treatment for 14 days, the animals were sacrificed by decapitation. Tissues were quickly removed from the brain on a Petri dish placed on ice using laboratory microscope (Chan et al., “Development of a high resolution three-dimensional surgical atlas of the murine head for strains 129S1/SvImJ and C57Bl/6J using magnetic resonance imaging and micro-computed tomography,” Neuroscience. 144:604-615 (2007)). Bilateral corpus striatum stored at −80° C. until used for HPLC analysis. Bilateral substantia nigra were immediately homogenized using an Ultrasonic Cell Disruptor (Biologics, Model 150 V/T), and which were centrifuged. The supernatant was used for the estimation of various enzyme activities.
The concentration of BDNF was measured by an ABC-ELISA method, according to the manufacturer's protocol (Beyotime Institute of Biotechnology). […] OD value and BDNF concentration are proportional to the standard curve obtained the standard BDNF concentrations. Data are represented as pg/mg protein.

[5] = system: TH-immunoresponsive (TH-IR) neurons in the substantia nigra of MPTP-treated mice; assay: Tyrosine hydroxylase immunohistochemistry: number of TH-IR neurons in substantia nigra; assay type: in vivo; conditions: mean±SD
Description: as §1
Twenty-four hours later the last injection, mice were anesthetized with chloral hydrate (100 mg/kg). The mice were subjected to thoracotomy and perfusion with ice-cold 0.9% sodium chloride 50 ml, then with 4% paraformaldehyde (PFA) 100 ml in 0.01 M PBS through the left ventricular. After fixation, the brain was post-fixed and then cryoprotected in 30% sucrose for 24 h. The brains were sectioned through the substantia nigra (SN) coronally at 30 um thickness on a cryostat (Leica CM1900, Nussloch, Germany). Sections were collected in 0.01 M PBS and processed free floating. The free floating sections were washed 3 times in Tris-buffered saline (TBS), incubated with H2O2 (3%) for 30 min and blocked with 5% normal goat serum (NGS), 0.2% Triton X-100 in TBS. Sections were incubated for 24 h with primary rabbit anti-TH monoclonal antibody (1:10000) (Watanabe et al., “Protective effects of M, Matsubara, Imai Y, Araki T. neuronal nitric oxide synthase inhibitor in mouse brain against MPTP neurotoxicity: an immunohistological study,” Eur Neuropsychopharmacol. 14:93-104 (2004)). Sections were washed in PBS and incubated for 2 hr at room temperature in secondary antibodies: biotinylated goat anti-rabbit (1:500) diluted in blocking buffer. The sections were incubated for 2 hr at room temperature in horseradish peroxidase labeled avidin work […] solution (1:500). TH immunoreactivity was visualized in SN after incubation in DAB and Nickel sulfate salt for 5-10 min. Sections were mounted on slides, dried, dehydrated in graded ethanol, cleared in xylene, and mounted with DPX mounting medium and coverslip. To test the specificity of the immunostaining, control sections were processed in an identical manner but with the primary antibody omitted. After TH-staining, the image of the sections from the substantia nigra were digitalized with NIS-Elements imaging software (Nikon). The number of neurons was measured in the bilateral substantia nigra.

[6] = system: striatal dopamine (DA) concentration; assay: Assay of striatal dopamine (DA) by HPLC; assay type: in vivo, mice; conditions: mean±SD
Description: as §1
Samples were processed blindly to the treatment conditions for HPLC analysis with electrochemical detector (ECD) using the method by Beyer (Bayer, et al., 2002). Bilaterally corpus striatum tissues were sonicated in 1 ml of pre-colded 0.4 N HClO4. The resulting homogenates were centrifuged twice for 12 min at 12000×g at 4° C. Mobile phase consisting of 0.035 mol/L anhydrous citric acid, 0.09 mol/L without Water-sodium acetate, 0.23 mmol/L sodium alkane sulfonate, 0.13 mmol/L EDTA, 10% methanol (pH4.7). Electrochemical conditions for the experiment were +0.50V. Separation was carried out at a flow rate of 1.0 ml/min. Samples (20 μl) were automatic injected and were quantified by comparison of the area under the curve (AUC) against reference standards. The concentrations of DA were expressed as ng/mg protein of the brain tissue. Protein content was determined in tissue supernatants by the method of Lowry using bovine serum albumin as a standard (Lowry et al., “Protein measurement with the Folin phenol reagent,” J Biol Chem. 193:265-275 (1951)).

[7] = C20 mg alone (cysteamine 20 mg/kg/d, no MPTP)
[8] = C75 mg alone (cysteamine 75 mg/kg/d, no MPTP)

CN1CC=C(c2ccccc2)CC1.Cl [MPTP, 1-methyl-4-phenyl-1,2,3,6-tetrahydropyridine hydrochloride] was tested, and the ROS ([1]; MPTP alone, substantia nigra, control 13010 ± 261) was 20207 ± 203 MFI, the SOD ([2]; MPTP alone, substantia nigra, control 52.55 ± 13.35) was 57.73 ± 9.57 U/mg and the MDA (malondialdehyde (MDA); MPTP alone, substantia nigra, control 7.89 ± 0.65) was 10.84 ± 2.65 nmol/mg. The “level of GSH in the SNpc” value ([3]; MPTP alone, control 3.52±1.44) was 0.55±0.36 nmol TNB/mg protein, the “BDNF concentration in substantia nigra” value ([4]; MPTP alone, control 78.34±16.09) was 39.55±7.82 pg/mg protein and the “number of TH-IR nigral neurons” value ([5]; MPTP alone (20 mg/kg i.p., 5 days), control 295.65±47.47) was 166.65±58.15. The “striatal DA concentration” value ([6]; MPTP alone, control 57.62±12.70) was 26.38±6.47 ng/mg protein.

For NCCS [cysteamine], the ROS ([1]; C20 mg + MPTP (pretreatment)) was 17411 ± 589 MFI, the ROS [1, 7] was 17460 ± 779 MFI and the ROS ([1]; C75 mg + MPTP (pretreatment)) was 17411 ± 362 MFI. It also gave an ROS [1, 8] of 17980 ± 419 MFI, an ROS ([1]; MPTP + C20 mg (simultaneous)) of 19539 ± 431 MFI and an ROS ([1]; MPTP + C75 mg (simultaneous)) of 21976 ± 489 MFI. For the same compound, the SOD ([2]; C20 mg + MPTP (pretreatment)) was 62.11 ± 4.74 U/mg, the SOD [2, 7] was 58.88 ± 17.66 U/mg and the SOD ([2]; C75 mg + MPTP (pretreatment)) was 58.53 ± 5.82 U/mg. It also gave an SOD [2, 8] of 59.13 ± 10.66 U/mg, an SOD ([2]; MPTP + C20 mg (simultaneous)) of 66.77 ± 4.64 U/mg and an SOD ([2]; MPTP + C75 mg (simultaneous)) of 59.58 ± 2.24 U/mg. For the same compound, the MDA (malondialdehyde (MDA); C20 mg + MPTP (pretreatment)) was 8.25 ± 0.90 nmol/mg, the MDA (malondialdehyde (MDA); [7]) was 8.82 ± 2.44 nmol/mg and the MDA (malondialdehyde (MDA); C75 mg + MPTP (pretreatment)) was 8.56 ± 1.08 nmol/mg. It also gave an MDA (malondialdehyde (MDA); [8]) of 8.90 ± 2.14 nmol/mg, an MDA (malondialdehyde (MDA); MPTP + C20 mg (simultaneous)) of 9.86 ± 0.91 nmol/mg and an MDA (malondialdehyde (MDA); MPTP + C75 mg (simultaneous)) of 9.51 ± 0.57 nmol/mg. For the same compound, the “level of GSH in the SNpc” value ([3]; pretreatment with low dose cysteamine (20 mg/kg/d) + MPTP) was 3.16±1.28 nmol TNB/mg protein, the “BDNF concentration in substantia nigra” value ([4]; high dose cysteamine (75 mg/kg/d) + MPTP) was 55.43±12.15 pg/mg protein and the “BDNF concentration in substantia nigra” value ([4]; low dose cysteamine (20 mg/kg/d) + MPTP) was 74.22±7.79 pg/mg protein. The “BDNF concentration in substantia nigra” value ([4]; low dose cysteamine (20 mg/kg/d) alone, no MPTP) was 103.36±30.48 pg/mg protein, the “reversal of MPTP-induced decrease of BDNF” value ([4]; simultaneous administration of cysteamine (20 or 75 mg/kg/d) with MPTP, both P>0.05) was “did not reverse the decrease of BDNF by MPTP” and the “number of TH-IR nigral neurons” value ([5]; cysteamine 20 mg/kg/d 4 days prior to and along with MPTP (CS20 mg/kg/d+MPTP)) was 262.45±32.75. For the same compound, the “number of TH-IR nigral neurons” value ([5]; cysteamine 75 mg/kg/d alone, no MPTP) was 271.05±44.93, the “number of TH-IR nigral neurons” value ([5]; cysteamine 75 mg/kg/d pretreatment + MPTP (CS75 mg/kg/d+MPTP)) was 172.10±42.69 and the “number of TH-IR nigral neurons” value ([5]; simultaneous treatment MPTP+CS20 mg/kg/d) was 179.5±68.11. For the same compound, the “number of TH-IR nigral neurons” value ([5]; simultaneous treatment MPTP+CS75 mg/kg/d) was 174.05±45.78, the “striatal DA concentration” value ([6]; cysteamine 20 mg/kg/d 4 days before and along with MPTP) was 47.96±10.57 ng/mg protein and the “striatal DA concentration” value ([6]; cysteamine 75 mg/kg/d pretreatment + MPTP) was 25.65±7.71 ng/mg protein. For the same compound, the “striatal DA concentration” value ([6]; cysteamine 75 mg/kg/day alone, no MPTP) was 32.22±4.71 ng/mg protein, the “striatal DA concentration” value ([6]; simultaneous treatment cysteamine 20 mg/kg/d during MPTP) was 36.27±16.42 ng/mg protein and the “striatal DA concentration” value ([6]; simultaneous treatment cysteamine 75 mg/kg/day during MPTP) was 25.08±8.10 ng/mg protein.
